58 molecules from patent publication US20250387375A1, “SOFALCONE DERIVATIVES AND MEDICAL USE THEREOF” (KAOHSIUNG MEDICAL UNIVERSITY, priority 2024, published 2025) can be followed below.

Assay [1] has as its system human platelet suspension (platelet aggregation caused by collagen). The assay can be described thus: Platelet aggregation reaction test, collagen-induced. The settings on record: read-out: Collagen IC 50. In kind it is cell-based. The procedure: (§1) Blood samples were collected from healthy donors, and acid-citrate-dextrose (ACD) solution was used as an anticoagulant. The blood samples were centrifuged to obtain platelets, and residual plasma was removed by washing to prepare platelet suspension.
(§2) In the experimental method, a platelet aggregometer (Chrono-Log Co., Havertown, PA, USA) was used for tests. The compound to be tested was added to the platelet suspension and reacted for 3 minutes at 37° C. with stirring (1200 rpm). Then, platelet stimulator U46619 or collagen was added to initiate platelet aggregation, and the test time was 5 minutes. The principle of the platelet aggregation test was: when platelets were stimulated to induce aggregation reaction, the light transmission of the platelet suspension would increase; by calculating changes in light transmission of the platelet suspension before and after being stimulated, the percentage of platelet aggregation could be obtained.

Assay [2] deals with human platelet suspension (platelet aggregation caused by TxA2 agonist U46619). The assay can be described thus: Platelet aggregation reaction test, U46619-induced. In kind it is cell-based. The procedure: as §1, §2

Consider `CC(C)=CCOc1ccc(/C=C/C(=O)c2ccccc2OCC(=O)O)cc1` [Compound 27], for which the IC50 in assay [1] is 18.8 µM; in assay [2], 5.07 µM.
For `CC(C)=CCOc1ccc(C(=O)/C=C/c2cccc(F)c2)c(OCCCC(=O)O)c1` [Compound 14], in that order: 7.05 µM and 5.18 µM.
For `COC(=O)CCCOc1ccccc1C(=O)C=Cc1ccccc1` [Compound 112], in that order: 2.69 µM and 13.4 µM.
For `CCOC(=O)COc1cc(O)ccc1C(=O)C=Cc1ccc([N+](=O)[O-])cc1` [Compound 45], in that order: > 20 µM and > 20 µM.
On to `COC(=O)COc1cc(OCC=C(C)C)ccc1C(=O)C=Cc1ccc(OCC=C(C)C)cc1` [Compound 68], for which the IC50 in assay [1] and in assay [2] was > 100 µM each time.
With `CC(C)=CCOc1ccc(C(=O)/C=C/c2ccc(Cl)cc2)c(OCC(=O)O)c1` [Compound 24], the IC50 in assay [1] came to 67.6 µM; in assay [2] it was 43.4 µM.
For `O=C(O)COc1cc(OCc2ccc(F)cc2)ccc1C(=O)C=Cc1ccc(OCc2ccc(F)cc2)cc1` [Compound 89], in that order: 33.9 µM and 3.59 µM.
For `CC(C)=CCOc1ccc(C=CC(=O)c2ccccc2OCCCCCC(=O)O)cc1` [Compound 103], in that order: 0.38 µM and 0.46 µM.
For the molecule `CC(C)=CCCC(C)=CCOc1ccc(C(=O)C=Cc2ccc(OCC=C(C)C)cc2)c(OCCCC(=O)O)c1` [Compound 5], the IC50 is 6.28 µM in assay [1] and 4.45 µM in assay [2].
For `O=C(O)CCCOc1ccccc1C(=O)C=Cc1ccccc1` [Compound 34], in that order: 6.4 µM and 9.5 µM.
In the same order, the values of `COC(=O)CCCCCOc1ccccc1C(=O)C=Cc1ccccc1` [Compound 113] are 0.35 µM and 0.57 µM.
`CCOC(=O)CCCCCCCOc1ccccc1C(=O)C=Cc1ccccc1` [Compound 106]: the IC50 turned out to be 13.1 µM in assay [1] and 2.84 µM in assay [2].
In the same order, the values of `CC(C)=CCOc1cccc(/C=C/C(=O)c2ccc(OCC=C(C)C)cc2OCC(=O)O)c1` [Compound 20] are 28.3 µM and 20.6 µM.
As for `COC(=O)COc1cc(O)ccc1C(=O)CCc1ccc(O)cc1` [Compound 72], the IC50 in assay [1] amounted to 11.6 µM; in assay [2] it was 47.6 µM.
For the molecule `CC(C)=CCOc1ccc(C(=O)/C=C/c2ccc(OCC=C(C)C)c(OCC=C(C)C)c2)c(OCC(=O)O)c1` [Compound 21], the IC50 in assay [1] is 29.7 µM; in assay [2], 14.4 µM.
In the same order, the values of `CC(C)=CCOc1ccc(/C=C/C(=O)c2ccc(F)cc2OCCCC(=O)O)cc1` [Compound 9] are 5.14 µM and 5.44 µM.
For `O=C(O)CCCCCOc1ccccc1C(=O)C=Cc1ccco1` [Compound 52], in that order: 0.56 µM and 0.5 µM.
In the same order, the values of `COC(=O)COc1cc(OCc2ccc(F)cc2)ccc1C(=O)C=Cc1ccc(OCc2ccc(F)cc2)cc1` [Compound 86] are > 100 µM and > 100 µM.
On to `O=C(O)CCCCCOc1ccccc1C(=O)CCc1ccccc1` [Compound 49], for which the IC50 in assay [1] turned out to be 4.85 µM; in assay [2], 0.5 µM.
In the same order, the values of `CC(C)=CCOc1ccc(C=CC(=O)c2ccccc2OCCCC(=O)O)cc1` [Compound 99] are 6.42 µM and 3.33 µM.
Turning to `O=C(O)COc1ccccc1C(=O)C=Cc1cccnc1` [Compound 60], the IC50 in assay [1] was determined as 39.8 µM; in assay [2] it was 29.3 µM.
In the same order, the values of `CCOC(=O)COc1ccccc1C(=O)C=Cc1ccccc1` [Compound 108] are 3.67 µM and 15.3 µM.
`CC(C)CCOc1ccc(CCC(=O)c2ccc(OCCC(C)C)cc2OCC(=O)O)cc1` [Compound 100]: the IC50 was determined as 66.8 µM in assay [1] and 1.73 µM in assay [2].
In the same order, the values of `CCOC(=O)COc1ccccc1C(=O)C=Cc1ccc(O)cc1` [Compound 42] are 1.59 µM and 38.7 µM.
As to `O=C(O)CCCCCOc1ccccc1C(=O)C=Cc1ccccn1` [Compound 53], the IC50 in assay [1] was 44.4 µM; in assay [2], 50.4 µM.
Take `CCOC(=O)CCCCCOc1ccccc1C(=O)CCc1ccccc1` [Compound 115]: the IC50 in assay [1] was found to be 5.87 µM; in assay [2], 0.2 µM.
For the molecule `CCCCCCCCOc1ccc(C=CC(=O)c2ccc(OCCCCCCCC)cc2OCC(=O)O)cc1` [Compound 96], the IC50 in assay [1] and in assay [2] was > 100 µM in each case.
For the molecule `CCOC(=O)CCCOc1ccccc1C(=O)C=Cc1ccccc1` [Compound 109], the results for the IC50 in assay [1] and in assay [2] were 4.89 µM and 9.56 µM, respectively.
In the same order, the values of `CCOC(=O)COc1ccc(C=CC(=O)c2ccc(OCC(=O)OCC)cc2OCC(=O)O)cc1` [Compound 84] are > 100 µM and 80.8 µM.
For the molecule `CCOC(=O)COc1cc(O)ccc1C(=O)C=Cc1ccc(Cl)cc1` [Compound 44], the IC50 was 8.92 µM in assay [1] and > 100 µM in assay [2].
In the same order, the values of `CCOC(=O)CCCCCOc1ccccc1C(=O)C=Cc1ccccc1F` [Compound 38] are 0.07 µM and 0.03 µM.
In the same order, the values of `CC(C)=CCOc1ccc(C(=O)/C=C/c2ccccc2OCC=C(C)C)c(OCC(=O)O)c1` [Compound 19] are 15.2 µM and 20.3 µM.
As for `CCOC(=O)COc1ccc(C=CC(=O)c2ccc(OCC(=O)OCC)cc2OCC(=O)OC)cc1` [Compound 83], the IC50 amounted to 8.31 µM in assay [1] and 8.62 µM in assay [2].
For `COC(=O)COc1cc(OCc2ccccc2)ccc1C(=O)C=Cc1ccc(OCc2ccccc2)cc1` [Compound 85], in that order: > 100 µM and > 100 µM.
For `O=C(O)CCCCCOc1cc(F)ccc1C(=O)/C=C/c1ccc(F)cc1` [Compound 16], the IC50 stood at 0.62 µM in assay [1] and 0.37 µM in assay [2].
In the same order, the values of `Nc1ccsc1C=CC(=O)c1ccccc1OCCCCCC(=O)O` [Compound 78] are 7.7 µM and 5.87 µM.
For `O=C(O)COc1ccccc1C(=O)C=Cc1cccs1` [Compound 57], in that order: 15.5 µM and 71.5 µM.
For `O=C(O)CCCCCOc1cc(F)ccc1C(=O)/C=C/c1ccc(F)cc1` [Compound 12], in that order: 0.43 µM and 0.5 µM.
On to `COC(=O)COc1cc(OC(C)=O)ccc1C(=O)C=Cc1ccc(OC(C)=O)cc1` [Compound 81], for which the IC50 turned out to be 23.8 µM in assay [1] and 28 µM in assay [2].
Regarding `CCOC(=O)CCCCOc1ccccc1C(=O)C=Cc1ccccc1` [Compound 110], the IC50 came to 4.48 µM in assay [1] and 2.9 µM in assay [2].
In the case of `COC(=O)COc1cc(OCC(=O)c2ccccc2)ccc1C(=O)C=Cc1ccc(OCC(=O)c2ccccc2)cc1` [Compound 82], the figures for the IC50 in assay [1] and in assay [2] were ≥ 100 µM and > 100 µM, respectively.
For `O=C(O)COc1ccccc1C(=O)C=Cc1ccccc1` [Compound 35], in that order: 7.91 µM and 6.58 µM.
For `CC(C)=CCOc1ccc(CCC(=O)c2ccc(OCC=C(C)C)cc2OCC(=O)O)cc1` [Compound 76], in that order: 31 µM and 12.6 µM.
For `O=C(O)CCCCCOc1ccccc1C(=O)CCc1cccc(F)c1` [Compound 50], in that order: 0.33 µM and 0.57 µM.
`O=C(O)COc1ccccc1C(=O)C=Cc1ccc(Br)s1` [Compound 58]: the values for the IC50 in assay [1] and in assay [2] were 40.9 µM and 72.6 µM, respectively.
For `O=C(O)CCCCCOc1cc(F)ccc1C(=O)/C=C/c1ccccc1` [Compound 11], in that order: 5.38 µM and 54.4 µM.
For `O=C(O)COc1ccccc1C(=O)/C=C/c1ccc(F)cc1` [Compound 28], in that order: 4.22 µM and 1.8 µM.
For `O=C(O)CCCCCCOc1ccccc1C(=O)C=Cc1ccccc1` [Compound 105], in that order: 9.08 µM and 2.92 µM.
On to `CCOC(=O)CCCCCOc1ccccc1C(=O)C=Cc1cccs1` [Compound 61], for which the IC50 in assay [1] came to 0.56 µM; in assay [2], 0.54 µM.
In the same order, the values of `CCCCCCCCOc1ccc(C=CC(=O)c2ccc(OCCCCCCCC)cc2OCC(=O)OC)cc1` [Compound 92] are > 50 µM and > 50 µM.
In the same order, the values of `O=C(O)COc1cc(F)ccc1C(=O)/C=C/c1ccccc1` [Compound 29] are 7.88 µM and 1.56 µM.
For `CCOC(=O)COc1cc(O)ccc1C(=O)C=Cc1cccc(O)c1` [Compound 40], in that order: 10.3 µM and 25.9 µM.
For the molecule `O=C(O)COc1cc(F)ccc1C(=O)C=Cc1ccc(F)cc1` [Compound 33], the IC50 in assay [1] was found to be 12.2 µM; in assay [2] it was 2.15 µM.
For `CCOC(=O)CCCCCOc1ccccc1C(=O)C=Cc1ccco1` [Compound 62], the IC50 in assay [1] was determined as 0.58 µM; in assay [2] it was 0.48 µM.
Take `CC(C)=CCCC(C)=CCOc1ccc(C=CC(=O)c2ccc(OCC=C(C)CCC=C(C)C)cc2OCCCC(=O)O)cc1` [Compound 6]: the IC50 in assay [1] came to 44.4 µM; in assay [2], 3.66 µM.
For `O=C(O)CCCCCOc1ccccc1C(=O)C=Cc1ccccc1` [Compound 77], in that order: 43.6 µM and 5.54 µM.
For `CCOC(=O)COc1cc(O)ccc1C(=O)C=Cc1ccc(O)c(O)c1` [Compound 41], in that order: 15.2 µM and 34.9 µM.
For `CCOC(=O)COc1ccccc1C(=O)C=Cc1ccc(Br)s1` [Compound 67], in that order: 5.35 µM and > 100 µM.
